What was measured:
[1] = molecular target: Melanocortin receptor 5 (Homo sapiens, UniProt P33032); assay: Displacement of [125I]NDP-MSH from human MC5R expressed in HEK293 cells; format: cell-based
[2] = molecular target: Melanocortin receptor 3 (Homo sapiens, UniProt P41968); assay: Displacement of [125I]NDP-MSH from human MC3R expressed in HEK293 cells; format: cell-based
[3] = molecular target: Melanocyte-stimulating hormone receptor (Homo sapiens) (UniProt Q01726); assay: Inhibition of [125I]NDP-MSH binding to human MC1R expressed in HEK293 cells; format: cell-based; conditions: concentration not given here
[4] = molecular target: T1, Melanocortin receptor 4 (Homo sapiens, UniProt P32245); assay: Displacement of [125I]NDP-MSH from human MC4R expressed in HEK293 cells; format: cell-based
[5] = Ratio of drug level in brain against plasma in mouse after 1 hr at 5 mg/kg, iv; format: ADME, organism-based; parameters: dose 5 mg/kg, route intravenous; conditions: read-out: BPR
[6] = Lipophilicity, Log D of the compound; format: physicochemical; conditions: octanol/water
[7] = Bioavailability in mouse at 10 mg/kg, po; format: ADME, organism-based; conditions: in vivo
[8] = Drug level in mouse brain after 4 hrs at 5 mg/kg, iv; format: ADME, organism-based; parameters: dose 5 mg/kg, route intravenous; conditions: read-out: Drug uptake
[9] = Ratio of drug level in brain against plasma in mouse after 4 hrs at 5 mg/kg, iv; format: ADME, organism-based; parameters: dose 5 mg/kg, route intravenous; conditions: read-out: BPR
[10] = molecular target: T1, Melanocortin receptor 4; assay: Activity at MC4R assessed as inhibition of alpha-MSH-stimulated cAMP production; format: functional
[11] = Cmax in mouse at 10 mg/kg, po; format: ADME, organism-based; parameters: dose 10 mg/kg, route oral; conditions: in vivo
[12] = Drug level in mouse brain after 1 hr at 5 mg/kg, iv; format: ADME, organism-based; parameters: dose 5 mg/kg, route intravenous; conditions: read-out: Drug uptake
[13] = Half life in mouse at 5 mg/kg, iv; format: ADME, organism-based; parameters: dose 5 mg/kg, route intravenous; conditions: in vivo
[14] = molecular target: Melanocortin receptor (M4 and M5) (Homo sapiens) (UniProt P32245+P33032); assay: Selectivity for MC4R over MC5R; format: protein assay
[15] = test system: Mus musculus; assay: AUC in mouse at 10 mg/kg, po; format: ADME, organism-based, Plasma; parameters: dose 10 mg/kg, route oral; conditions: in vivo
[16] = Volume of distribution in mouse at 5 mg/kg, iv; format: ADME, organism-based; parameters: dose 5 mg/kg, route intravenous; conditions: in vivo, read-out: Vdss
[17] = Tmax in mouse at 10 mg/kg, po; format: ADME, organism-based; parameters: dose 10 mg/kg, route oral; conditions: in vivo
[18] = test system: Mus musculus; assay: AUC in mouse at 5 mg/kg, iv; format: ADME, organism-based, Plasma; parameters: dose 5 mg/kg, route intravenous; conditions: in vivo
[19] = Clearance in mouse at 5 mg/kg, iv; format: ADME, organism-based; parameters: dose 5 mg/kg, route intravenous; conditions: in vivo

Sequence of Melanocortin receptor 5 (P33032 whole entry): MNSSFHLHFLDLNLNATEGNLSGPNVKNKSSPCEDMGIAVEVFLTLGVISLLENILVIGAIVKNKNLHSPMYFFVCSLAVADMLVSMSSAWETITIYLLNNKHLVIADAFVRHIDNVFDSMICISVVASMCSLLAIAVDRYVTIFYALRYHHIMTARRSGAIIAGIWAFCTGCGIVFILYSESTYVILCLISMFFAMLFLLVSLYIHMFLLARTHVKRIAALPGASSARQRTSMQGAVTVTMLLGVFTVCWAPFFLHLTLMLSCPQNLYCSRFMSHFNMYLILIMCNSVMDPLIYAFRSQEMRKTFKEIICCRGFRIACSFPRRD
T1 sequence (P32245 whole entry): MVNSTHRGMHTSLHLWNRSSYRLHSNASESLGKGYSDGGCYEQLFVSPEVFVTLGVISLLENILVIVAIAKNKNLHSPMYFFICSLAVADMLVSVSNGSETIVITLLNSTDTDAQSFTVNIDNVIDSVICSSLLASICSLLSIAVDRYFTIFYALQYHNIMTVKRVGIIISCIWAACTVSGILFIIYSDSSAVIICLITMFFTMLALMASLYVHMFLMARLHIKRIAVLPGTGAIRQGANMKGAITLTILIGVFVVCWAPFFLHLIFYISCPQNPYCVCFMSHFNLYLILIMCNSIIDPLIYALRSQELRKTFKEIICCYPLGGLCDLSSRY
Sequence of Melanocortin receptor 3 (P41968 whole entry): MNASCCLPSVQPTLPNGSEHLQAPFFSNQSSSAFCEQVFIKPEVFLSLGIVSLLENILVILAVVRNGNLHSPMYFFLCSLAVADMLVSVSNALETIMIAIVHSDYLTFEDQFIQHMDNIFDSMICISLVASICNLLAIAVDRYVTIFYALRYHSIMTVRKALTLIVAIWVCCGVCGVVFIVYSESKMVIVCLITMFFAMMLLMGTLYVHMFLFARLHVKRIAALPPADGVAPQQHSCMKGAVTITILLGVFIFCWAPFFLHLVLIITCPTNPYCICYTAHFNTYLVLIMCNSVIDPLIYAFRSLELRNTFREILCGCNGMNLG
Sequence of Melanocyte-stimulating hormone receptor (Homo sapiens) (Q01726 whole entry, looked up): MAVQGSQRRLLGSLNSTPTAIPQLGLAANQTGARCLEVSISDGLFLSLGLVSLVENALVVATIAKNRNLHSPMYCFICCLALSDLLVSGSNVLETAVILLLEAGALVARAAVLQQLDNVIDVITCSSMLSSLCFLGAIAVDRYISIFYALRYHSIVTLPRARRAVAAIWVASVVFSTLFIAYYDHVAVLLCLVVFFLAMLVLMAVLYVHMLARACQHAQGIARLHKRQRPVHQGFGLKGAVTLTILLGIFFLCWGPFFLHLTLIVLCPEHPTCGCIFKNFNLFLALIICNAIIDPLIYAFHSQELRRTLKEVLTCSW
Sequence of Melanocortin receptor (M4 and M5) (Homo sapiens) (P32245 whole entry, looked up): as the sequence (P32245 whole entry) above
Sequence of Melanocortin receptor (M4 and M5) (Homo sapiens) (P33032 whole entry, looked up): as the sequence (P33032 whole entry) above

Structure (SMILES)	Ki [4] [µM]	also measured
CCC(C)[C@H](NC(C)=O)c1cc(C(F)(F)F)ccc1N1CCN(C(=O)CCc2ccc(Cl)cc2Cl)CC1 (stereo not given in full)	0.36	–
CCC(C)C(N)c1cc(C(F)(F)F)ccc1N1CCN(C(=O)CCc2ccc(Cl)cc2Cl)CC1 (stereo not given)	0.16	–
NC(COCc1ccccc1)c1cc(F)ccc1N1CCN(C(=O)CCc2ccc(Cl)cc2Cl)CC1 (stereo not given)	1	–
CCC(C)[C@H](NC(=O)CN)c1cc(C(F)(F)F)ccc1N1CCN(C(=O)CCc2ccc(Cl)cc2Cl)CC1 (stereo not given in full)	0.018	–
CC[C@H](C)C(N)c1cc(C(F)(F)F)ccc1N1CCN(C(=O)CCc2ccc(Cl)cc2Cl)CC1 (stereo not given in full)	0.075	–
CCC(C)[C@H](N)c1cc(C(F)(F)F)ccc1N1CCN(C(=O)CCc2ccc(Cl)cc2)CC1 (stereo not given in full)	0.086	–
COc1ccc(CCC(=O)N2CCN(c3ccc(C(F)(F)F)cc3[C@@H](N)CC(C)C)CC2)cc1OC	4.3	–
CC(C)C[C@H](N)c1cc(C(F)(F)F)ccc1N1CCN(C(=O)CCc2ccccc2F)CC1	2.8	–
CC(C)C[C@H](N)c1cc(C(F)(F)F)ccc1N1CCN(C(=O)CCc2c[nH]c3ccccc23)CC1	0.64	–
CCOCC(NC(=O)CCN)c1cc(F)ccc1N1CCN(C(=O)CCc2ccc(Cl)cc2Cl)CC1 (stereo not given)	0.3	–
CC(C)C[C@H](N)c1cc(C(F)(F)F)ccc1N1CCN(C(=O)CCc2ccccc2Cl)CC1	1.7	–
CCC(C)[C@H](N)c1cc(C(F)(F)F)ccc1N1CCN(C(=O)CCc2ccc(OC)cc2Cl)CC1 (stereo not given in full)	0.057	–
COc1cc(OC)c(OC)cc1CCC(=O)N1CCN(c2ccc(C(F)(F)F)cc2[C@@H](N)CC(C)C)CC1	6.1	–
CC(C)C[C@H](N)c1cc(C(F)(F)F)ccc1N1CCN(C(=O)CCc2ccc(Cl)cc2Cl)CC1	0.074	–
CC(C)C[C@H](N)c1cc(C(F)(F)F)ccc1N1CCN(C(=O)CCc2ccc3c(c2)OCO3)CC1	1.5	–
CCC(C)[C@H](NCc1ccccc1F)c1cc(C(F)(F)F)ccc1N1CCN(C(=O)CCc2ccc(Cl)cc2Cl)CC1 (stereo not given in full)	> 10	–
CN[C@@H](CC(C)C)c1cc(C(F)(F)F)ccc1N1CCN(C(=O)CCc2ccc(Cl)cc2Cl)CC1	1.9	–
NCCNC(COCc1ccccc1)c1cc(F)ccc1N1CCN(C(=O)CCc2ccc(Cl)cc2Cl)CC1 (stereo not given)	0.4	–
CCC(C)[C@H](N)c1cc(C(F)(F)F)ccc1N1CCN(C(=O)CCc2ccc(OC)c(OC)c2Cl)CC1 (stereo not given in full)	2.5	–
CCC(C)[C@H](NC(=O)CCN)c1cc(C(F)(F)F)ccc1N1CCN(C(=O)CCc2ccc(Cl)cc2Cl)CC1 (stereo not given in full)	0.013	Ki [1]: 0.17 µM; Kp at 1 h [5]: 0.02; logD [6]: 4; bioavailability [7]: 26.1%; Ki [2]: 0.8 µM; inhibition [3]: 17%; concentration at 4 h [8]: 70 ng/g; Kp at 4 h [9]: 0.03; IC50 [10]: 1.1 µM; Cmax [11]: 1.17 µg/mL; concentration at 1 h [12]: 62 ng/g; half-life [13]: 5.2 h; AUC [15]: 12.1 µg·h/mL; Vd [16]: 1.6 L/kg; Tmax [17]: 6 h; AUC [18]: 23.1 µg·h/mL; clearance [19]: 0.21 L/h/kg
CCC(C)[C@H](NCCc1ccccc1)c1cc(C(F)(F)F)ccc1N1CCN(C(=O)CCc2ccc(Cl)cc2Cl)CC1 (stereo not given in full)	2.6	–
CCC(C)[C@H](NC[C@H](C)N)c1cc(C(F)(F)F)ccc1N1CCN(C(=O)CCc2ccc(Cl)cc2Cl)CC1 (stereo not given in full)	0.089	–
CCC(C)[C@H](NCC1CCCO1)c1cc(C(F)(F)F)ccc1N1CCN(C(=O)CCc2ccc(Cl)cc2Cl)CC1 (stereo not given in full)	0.78	–
CC(C)C[C@H](N)c1cc(C(F)(F)F)ccc1N1CCN(C(=O)CCc2c(Cl)cccc2Cl)CC1	2.6	–

Continued, in another order:

Ki [4] [µM]	Structure (SMILES)	also measured
0.11	CC(C)C[C@H](N)c1cccc(F)c1N1CCN(C(=O)CCc2ccc(Cl)cc2Cl)CC1	Ki [1]: 1.2 µM; Ki [2]: 1.4 µM; inhibition [3]: 21%
1.6	Cc1[nH]c2ccccc2c1CCC(=O)N1CCN(c2ccc(C(F)(F)F)cc2[C@@H](N)CC(C)C)CC1	–
1.8	CCC(C)[C@H](NS(C)(=O)=O)c1cc(C(F)(F)F)ccc1N1CCN(C(=O)CCc2ccc(Cl)cc2Cl)CC1 (stereo not given in full)	–
0.11	CCC(C)[C@H](NC[C@H]1CCCN1)c1cc(C(F)(F)F)ccc1N1CCN(C(=O)CCc2ccc(Cl)cc2Cl)CC1 (stereo not given in full)	–
0.14	CC(C)C(N)c1cc(C(F)(F)F)ccc1N1CCN(C(=O)CCc2ccc(Cl)cc2Cl)CC1 (stereo not given)	–
0.056	CCC(C)[C@H](NCCN)c1cc(C(F)(F)F)ccc1N1CCN(C(=O)CCc2ccc(Cl)cc2Cl)CC1 (stereo not given in full)	–
0.49	CC(N)c1cc(C(F)(F)F)ccc1N1CCN(C(=O)CCc2ccc(Cl)cc2Cl)CC1 (stereo not given)	–
0.17	CCN[C@@H](CC(C)C)c1cc(C(F)(F)F)ccc1N1CCN(C(=O)CCc2ccc(Cl)cc2Cl)CC1	–
2.2	CC(C)C[C@H](N)c1cc(C(F)(F)F)ccc1N1CCN(C(=O)CCc2cccc(C(F)(F)F)c2)CC1	–
0.064	CCC(C)[C@H](NC[C@@H]1CCCN1)c1cc(C(F)(F)F)ccc1N1CCN(C(=O)CCc2ccc(Cl)cc2Cl)CC1 (stereo not given in full)	–
2.3	CC(C)C[C@H](N)c1cc(C(F)(F)F)ccc1N1CCN(C(=O)CCc2csc3ccccc23)CC1	–
0.35	COc1ccc(CCC(=O)N2CCN(c3ccc(C(F)(F)F)cc3[C@@H](N)CC(C)C)CC2)cc1	–
4.6	CC(C)C[C@H](N)c1cc(C(F)(F)F)ccc1N1CCN(C(=O)CCc2cccs2)CC1	–
4	COc1cccc(CCC(=O)N2CCN(c3ccc(C(F)(F)F)cc3[C@@H](N)CC(C)C)CC2)c1	–
2.5	COc1ccc(OC)c(CCC(=O)N2CCN(c3ccc(C(F)(F)F)cc3[C@@H](N)CC(C)C)CC2)c1	–
0.019	CC(C)C[C@H](NC(=O)CN)c1cc(C(F)(F)F)ccc1N1CCN(C(=O)CCc2ccc(Cl)cc2Cl)CC1	Ki [1]: 0.5 µM; Kp at 1 h [5]: 0.08; logD [6]: 4.5; bioavailability [7]: 11.2%; Ki [2]: 1.2 µM; inhibition [3]: 18%; concentration at 4 h [8]: 33 ng/g; Kp at 4 h [9]: 0.17; IC50 [10]: 1.3 µM; Cmax [11]: 0.115 µg/mL; concentration at 1 h [12]: 43 ng/g; half-life [13]: 3.8 h; Selectivity ratio [14]: > 25; AUC [15]: 0.687 µg·h/mL; Vd [16]: 8.8 L/kg; Tmax [17]: 2 h; AUC [18]: 3.07 µg·h/mL; clearance [19]: 1.61 L/h/kg
1.4	COc1ccccc1CCC(=O)N1CCN(c2ccc(C(F)(F)F)cc2[C@@H](N)CC(C)C)CC1	–

Ki [4] [µM]	Structure (SMILES)	also measured
4.9	CC(C)C[C@H](N)c1cc(C(F)(F)F)ccc1N1CCN(C(=O)CCc2ccc(S(C)(=O)=O)cc2)CC1	–
> 10	CC(C)C[C@H](N)c1cc(C(F)(F)F)ccc1N1CCN(C(=O)CCc2ccc(O)cc2)CC1	–
0.69	CCOCC(N)c1cc(F)ccc1N1CCN(C(=O)CCc2ccc(Cl)cc2Cl)CC1 (stereo not given)	–
0.025	CC(C)C[C@H](NC(=O)CCN)c1cc(C(F)(F)F)ccc1N1CCN(C(=O)CCc2ccc(Cl)cc2Cl)CC1	–
3	CC(C)C[C@H](N)c1cc(C(F)(F)F)ccc1N1CCN(C(=O)CCc2cn(C)c3ccccc23)CC1	–
0.03	CCC(C)[C@H](NCCCN)c1cc(C(F)(F)F)ccc1N1CCN(C(=O)CCc2ccc(Cl)cc2Cl)CC1 (stereo not given in full)	–
3.3	CC(C)C[C@H](N)c1cc(C(F)(F)F)ccc1N1CCN(C(=O)CCc2ccccc2O)CC1	–
2.1	Cc1cccc(CCC(=O)N2CCN(c3ccc(C(F)(F)F)cc3[C@@H](N)CC(C)C)CC2)c1	–
5.9	CCC(C)[C@H](NCc1ccccc1)c1cc(C(F)(F)F)ccc1N1CCN(C(=O)CCc2ccc(Cl)cc2Cl)CC1 (stereo not given in full)	–
0.19	CCCCC(N)c1cc(C(F)(F)F)ccc1N1CCN(C(=O)CCc2ccc(Cl)cc2Cl)CC1 (stereo not given)	–
0.092	CCN[C@H](c1cc(C(F)(F)F)ccc1N1CCN(C(=O)CCc2ccc(Cl)cc2Cl)CC1)C(C)CC (stereo not given in full)	–
0.094	CC(C)C[C@H](N)c1cc(F)ccc1N1CCN(C(=O)CCc2ccc(Cl)cc2Cl)CC1	–
2.4	CCC(C)[C@H](NC(=O)OC)c1cc(C(F)(F)F)ccc1N1CCN(C(=O)CCc2ccc(Cl)cc2Cl)CC1 (stereo not given in full)	–
0.62	COCCN[C@@H](CC(C)C)c1cc(C(F)(F)F)ccc1N1CCN(C(=O)CCc2ccc(Cl)cc2Cl)CC1	–
2.8	CCC(C)CN[C@H](c1cc(C(F)(F)F)ccc1N1CCN(C(=O)CCc2ccc(Cl)cc2Cl)CC1)C(C)CC (stereo not given in full)	–
0.21	NCCC(=O)NC(COCc1ccccc1)c1cc(F)ccc1N1CCN(C(=O)CCc2ccc(Cl)cc2Cl)CC1 (stereo not given)	–

Reference: ChEMBL document CHEMBL1149513, “Arylpropionylpiperazines as antagonists of the human melanocortin-4 receptor” (Bioorg Med Chem Lett, 2006)
